ChEMBL document CHEMBL2311532, “Identification of benzofuran central cores for the inhibition of leukotriene A(4) hydrolase” (Bioorg Med Chem Lett, 2013)

Key:
[1] = target: T1, Leukotriene A-4 hydrolase (Homo sapiens, UniProt P09960); assay: Inhibition of recombinant human LTA4H expressed in Sf9 cells using LTA4 as substrate incubated for 10 mins prior to substrate addition measured after 10 to 30 mins by enzyme immunoassay
T1 sequence (P09960 whole entry): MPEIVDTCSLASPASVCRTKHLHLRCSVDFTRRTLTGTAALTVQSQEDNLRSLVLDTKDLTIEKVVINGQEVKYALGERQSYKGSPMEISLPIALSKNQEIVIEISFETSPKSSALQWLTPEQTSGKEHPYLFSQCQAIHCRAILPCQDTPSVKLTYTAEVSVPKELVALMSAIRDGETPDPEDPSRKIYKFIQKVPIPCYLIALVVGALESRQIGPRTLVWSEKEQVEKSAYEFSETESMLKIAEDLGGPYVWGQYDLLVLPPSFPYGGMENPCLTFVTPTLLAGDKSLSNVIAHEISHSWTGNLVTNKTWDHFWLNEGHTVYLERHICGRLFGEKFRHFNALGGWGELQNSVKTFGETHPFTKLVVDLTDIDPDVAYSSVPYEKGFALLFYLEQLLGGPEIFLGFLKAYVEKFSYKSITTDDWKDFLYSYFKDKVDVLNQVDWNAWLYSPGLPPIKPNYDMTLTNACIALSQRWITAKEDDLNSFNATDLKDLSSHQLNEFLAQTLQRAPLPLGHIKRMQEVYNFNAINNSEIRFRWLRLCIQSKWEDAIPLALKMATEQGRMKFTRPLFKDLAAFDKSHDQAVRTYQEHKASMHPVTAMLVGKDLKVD

[2] = target: T2, Leukotriene A-4 hydrolase (Mus musculus, UniProt P24527); assay: Inhibition of LTA4H in CD1 mouse whole blood assessed as decrease in calcium ionophore-stimulated LTB4 production incubated for 15 mins prior to calcium ionophore challenge measured after 10 to 30 mins by enzyme immunoassay
T2 sequence (P24527 whole entry): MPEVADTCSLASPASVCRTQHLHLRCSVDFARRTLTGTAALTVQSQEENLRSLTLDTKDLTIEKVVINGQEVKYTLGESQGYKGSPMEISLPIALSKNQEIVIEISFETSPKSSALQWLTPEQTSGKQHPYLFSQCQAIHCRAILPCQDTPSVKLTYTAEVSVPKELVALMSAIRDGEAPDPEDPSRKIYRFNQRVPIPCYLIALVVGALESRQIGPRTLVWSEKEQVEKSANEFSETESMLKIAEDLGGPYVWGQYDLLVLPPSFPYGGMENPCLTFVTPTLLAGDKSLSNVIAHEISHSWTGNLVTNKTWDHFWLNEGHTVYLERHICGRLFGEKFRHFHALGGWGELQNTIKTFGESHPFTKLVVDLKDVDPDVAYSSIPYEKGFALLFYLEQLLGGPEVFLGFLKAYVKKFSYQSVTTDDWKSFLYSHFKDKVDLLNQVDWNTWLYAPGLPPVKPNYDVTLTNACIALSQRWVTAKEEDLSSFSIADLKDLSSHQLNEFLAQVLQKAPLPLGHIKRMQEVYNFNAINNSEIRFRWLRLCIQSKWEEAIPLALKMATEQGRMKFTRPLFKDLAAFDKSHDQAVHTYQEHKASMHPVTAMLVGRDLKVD

[3] = Oral bioavailability in Sprague-Dawley rat at 10 mg/kg; format: ADME, organism-based; details: in vivo
Mus musculus [4] = assay: Inhibition of LTA4H in po dosed Balb/c mouse assessed as concentration required to decrease calcium ionophore-stimulated LTB4 production in blood administered for 4 hrs prior to calcium ionophore challenge measured after 10 to 30 mins by enzyme immunoassay; format: functional, organism-based
[5] = Half life in Sprague-Dawley rat at 3 mg/kg, iv and 10 mg/kg, po; format: ADME, organism-based; details: in vivo
Mus musculus [6] = assay: Inhibition of LTA4H in po dosed Balb/c mouse assessed as decrease in calcium ionophore-stimulated LTB4 production in blood administered for 4 hrs prior to calcium ionophore challenge measured after 10 to 30 mins by enzyme immunoassay; format: functional
[7] = Clearance in Sprague-Dawley rat at 3 mg/kg, iv and 10 mg/kg, po; format: ADME, organism-based; details: in vivo
[8] = Volume of distribution at steady state in Sprague-Dawley rat at 3 mg/kg, iv and 10 mg/kg, po; format: ADME, organism-based; details: in vivo, read-out: Vdss
[9] = target: T1, Leukotriene A-4 hydrolase; assay: Inhibition of LTA4H in human whole blood assessed as decrease in LTB4 production

IC50 [1] [µM]	IC50 [2] [µM]	Structure (SMILES)	further results
0.0037	0.017	CC(=O)NC1CCN(Cc2coc3cc(Oc4nc5ncccc5s4)ccc23)CC1	–
0.067	0.42	c1ccc2sc(Oc3ccc4c(CN5CCCCC5)coc4c3)nc2c1	–
–	0.021	O=C1CCCN1C1CCN(Cc2coc3cc(Oc4nc5ncccc5s4)ccc23)CC1	bioavailability [3]: 61%; EC50 (Mus musculus [4]): 0.003 µM; IC50 [9]: 0.061 µM; half-life [5]: 2.5 h; ED50 (Mus musculus [6]): 0.3 mg/kg; inhibition (Mus musculus [6]): Dose-dependent effect; clearance [7]: 11.7 mL/min/kg; Vd [8]: 1.6 L/kg
0.014	0.019	O=C(O)C1CCN(Cc2coc3cc(Oc4nc5ccccc5s4)ccc23)CC1	–
0.0073	0.021	CC(=O)N1CC2CC1CN2Cc1coc2cc(Oc3nc4ncccc4s3)ccc12 (centres undefined)	–
0.025	0.049	c1cnc2nc(Oc3ccc4c(CN5CCOCC5)coc4c3)sc2c1	–
0.0083	0.28	O=C(O)C1CCN(Cc2coc3cc(Oc4nc5ncccc5s4)ccc23)CC1	–
0.0046	0.021	c1cnc2nc(Oc3ccc4c(CN5CCCCC5)coc4c3)sc2c1	–
0.0073	0.021	CC(=O)N1C[C@@H]2C[C@H]1CN2Cc1coc2cc(Oc3nc4ncccc4s3)ccc12	–
0.026	0.1	CC(=O)NC1CCN(Cc2coc3cc(Oc4nc5ccccc5s4)ccc23)CC1	–
0.058	0.23	O=C1CCCN1C1CCN(Cc2coc3cc(Oc4nc5ccccc5s4)ccc23)CC1	–

Continued, molecule first:

Structure (SMILES)	IC50 [1] [µM]	IC50 [2] [µM]	further results
c1cnc2nc(Oc3ccc4cc(CN5CCCCC5)oc4c3)sc2c1	0.051	0.14	–
CC(=O)N1C[C@@H]2C[C@H]1CN2Cc1coc2cc(Oc3nc4ccccc4s3)ccc12	0.034	0.25	–
O=C1CCCN1C1CCN(CCOc2ccc(Oc3nc4ccccc4s3)cc2)CC1	–	–	bioavailability [3]: 29%; EC50 (Mus musculus [4]): 0.072 µM; half-life [5]: 0.9 h; ED50 (Mus musculus [6]): 10 mg/kg; clearance [7]: 8.33 mL/min/kg; Vd [8]: 1.1 L/kg
CC(=O)N[C@H]1C[C@H]2CC[C@@H](C1)N2Cc1coc2cc(Oc3nc4ncccc4s3)ccc12	0.0016	0.0098	–
CC(=O)N1CC2CC1CN2Cc1cc2cc(Oc3nc4cnccc4s3)ccc2o1 (centres undefined)	0.34	–	–
CC(=O)N1CC2CC1CN2Cc1cc2ccc(Oc3nc4cccnc4s3)cc2o1 (centres undefined)	2.13	–	–
CC(=O)N1CC2CC1CN2Cc1coc2cc(Oc3nc4cccnc4s3)ccc12 (centres undefined)	0.3	–	–
c1ccc2sc(Oc3ccc4c(CN5CCOCC5)coc4c3)nc2c1	0.14	1.12	–
CC(=O)N1CC2CC1CN2Cc1coc2cc(Oc3nc4cnccc4s3)ccc12 (centres undefined)	0.34	–	–
c1cnc2nc(Oc3ccc4oc(CN5CCCCC5)cc4c3)sc2c1	0.066	0.091	–
CC(=O)N1CC2CC1CN2Cc1cc2ccc(Oc3nc4cnccc4s3)cc2o1 (centres undefined)	2.37	–	–
c1ccc2sc(Oc3ccc4oc(CN5CCCCC5)cc4c3)nc2c1	0.33	–	–
CC(=O)N1CC2CC1CN2Cc1cc2cc(Oc3nc4cccnc4s3)ccc2o1 (centres undefined)	0.34	–	–
CC(=O)N[C@H]1C[C@H]2CC[C@@H](C1)N2Cc1coc2cc(Oc3nc4ccccc4s3)ccc12	0.0073	0.069	–
CC(=O)N1CC2CC1CN2Cc1cc2cc(Oc3nc4ncccc4s3)ccc2o1 (centres undefined)	0.007	0.027	–
CC(=O)N1CC2CC1CN2Cc1cc2ccc(Oc3nc4ncccc4s3)cc2o1 (centres undefined)	0.062	0.21	–
c1ccc2sc(Oc3ccc4cc(CN5CCCCC5)oc4c3)nc2c1	0.43	–	–
